“Also recorded” adds a separate entry of the source.
Tests used:
[1] = test system: HIF-1; assay: HIF-1 / HRE luciferase reporter assay (and HIF-1α immunoblot) in AML12 hepatocytes; format: cell-based, mouse
Protocol: (§1) The differentiated non-transformed mouse hepatocyte cell line AML12 (ATCC Inc.) was cultured in Dulbecco's […] (DMEM)/F-12 media (1:1) supplemented with 10% fetal bovine serum (FBS), 1% penicillin-streptomycin antibiotics and 5 μg/ml insulin, 5 μg/ml transferrin, 5 ng/ml selenium as previously described (62). The human hepatocellular carcinoma cell lines Huh7 and HepG2 were grown in DMEM media containing 10% FBS and 1% penicillin-streptomycin antibiotics. Media was purchased from Hyclone (Logan, Utah). All other medium components were purchased from Invitrogen (Carlsbad, Calif.). Cultures were maintained at 37° C. in a hunified 5% CO2 atmosphere. For hypoxic conditions, cells were grown at 1% O2 in a custom-designed incubator (XVivo Hypoxia Chamber; BioSpherix) for 24 hrs.
Western Blot Analysis and Immunoprecipitation. […]
For the reporter assay, cells were seeded in a 24-well plate under triplicate conditions at 80% confluency. […] After 2 days, luciferase and galactosidase expression were measured using the Dual-Light Reporter Gene Assay (Applied Biosystems, Foster City, Calif.) according to the manufacturer's instructions. […]

[2] = test system: β-catenin/TCF signaling; assay: β-catenin/TCF luciferase reporter assay in AML12 hepatocytes; format: cell-based
Protocol: as §1
Western Blot Analysis and Immunoprecipitation. Cells were treated with actinomycin D and TNFα, hydrogen peroxide (H2O2), hypoxia 1% for 24 hours or pre-treated with N-acetylcysteine (NAC), cobalt chloride (CoCl2), YC-1 (Alexis Biochemicals, San Diego, Calif.), Resveratrol or nicotinamide (NAM) as described in the figure legends. All other chemicals were purchased from Sigma Aldrich (Sigma Aldrich, St. Louis, Mo.). Total proteins (30 μg) were lysed with RIPA lysis buffer and separated by sodium dodecylsulfate-polyacrylamide gel electrophoresis. After transfer, the polyvinylidene diflouride membrane was blocked with 5% non-fat milk in Tris-buffered saline with 0.1% Tween-20 (TBST) and then incubated with primary antibodies at 4° C. overnight. After washing, the horseradish peroxidase-conjugated secondary antibodies were added for 30 minutes at room temperature. Antibody binding was visualized by enhanced chemiluminescence reagent (GE Healthcare BioSciences, Buckinghamshire, United Kingdom).
For the reporter assay, cells were seeded in a 24-well plate under triplicate conditions at 80% confluency. Cells were transfected the next day with plasmid pMegaTOPFLASH and pMegaFOPFLASH (β-catenin reporter construct containing LEF1/TCF binding sites) or 5×-HRE (hypoxia response element) and 1 μg of pEF1/Myc-His/LacZ plasmid using Lipofectamine 2000 (Invitrogen, Carlsbad, Calif.). Six hours after transfection, the media was replaced with DMEM/F12 media. 24 hours after transfection, cells were either pre-treated with drugs for one hour or incubated in hypoxia 1% for 24 hours as mentioned in the figure legends. After 2 days, luciferase and galactosidase expression were measured using the Dual-Light Reporter Gene Assay (Applied Biosystems, Foster City, Calif.) according to the manufacturer's instructions. Luciferase activity was normalized to β-galactosidase activity as an internal transfection control.

[3] = test system: AML12 hepatocytes; assay: Intracellular ROS levels by DCF-DA flow cytometry; format: cell-based, mouse; details: one hour pre-treatment with NAC (2 mmol/L)
Protocol: as §1, with “hrs. The fluorescent probe, dichlorofluorescein diacetate (DCF-DA) (Invitrogen, Carlsbad, Calif.), was used to monitor the intracellular generation of ROS induced by hypoxia. After cells were incubated with 10 μmol/l DCF-DA for 30 min as previously described (67), cells were trypsinized, pelleted by centrifugation and resuspended in phosphate-buffered saline for FACS analysis by using a FACS LSRII flow cytometer (Becton Dickinson, San Diego, Calif.). The oxidized form of DCF-DA was excited at 488 nm and detected at 530 nm. Data were analyzed using CellQuest software.” for “hrs.”

[4] = test system: AML12 hepatocytes; assay: Apoptosis under hypoxia by MTT assay and immunoblot for caspase-cleaved K18Asp237; format: cell-based, mouse; details: YC-1 pre-treatment (100 μmol/L) for 1 hour
Protocol: Western Blot Analysis and Immunoprecipitation. Cells were treated with actinomycin D and TNFα, hydrogen peroxide (H2O2), hypoxia 1% for 24 hours or pre-treated with N-acetylcysteine (NAC), cobalt chloride (CoCl2), YC-1 (Alexis Biochemicals, San Diego, Calif.), Resveratrol or nicotinamide (NAM) as described in the figure legends. All other chemicals were purchased from Sigma Aldrich (Sigma Aldrich, St. Louis, Mo.). Total proteins (30 μg) were lysed with RIPA lysis buffer and separated by sodium dodecylsulfate-polyacrylamide gel electrophoresis. […]
For the assessment of cell proliferation and survival, a commercially available MTT (3-(4,5-dimethylthiazol-2-yl)-2,5-diphenyltetrazolium bromide) cell proliferation assay (Roche Applied Science, Indianapolis, Ind.) was used according to the manufacturer instructions. Absorbance was measured at 570 nm using a spectrophotometer.
Apoptosis was measured by western blot using Asp237 antibody that recognizes caspase-cleaved keratin18 or by using Caspase-Glo 3/7 Assay following the manusfacturer's instructions (Promega Corporation, Madison, Wis.). […] Caspase-Glo 3/7 reagent was added to each well in a 1:1 ratio and incubated for one hour before measuring luminescence using a LB96B dual injector luminometer (Berthold Technologies, Oak Ridge, Tenn.).

[Cl][Co][Cl] [CoCl2, cobalt chloride]
HIF-1α induction (HRE reporter assay and immunoblot) ([1]; CoCl2 (150 μmol/L)): HIF-1α induction was verified | β-catenin/TCF reporter activity after HIF-1α stabilization ([2]; AML12 hepatocytes, CoCl2 (150 μmol/L) under normoxia or hypoxia): significant reduction in TCF signal transduction; also recorded: reduced

CC(=O)N[C@@H](CS)C(=O)O [NAC, N-acetylcysteine]
β-catenin/TCF signaling (reporter activity) under hypoxia ([2]; AML12 hepatocytes, hypoxia, one hour pre-treatment with NAC (2 mmol/L)): diminish the suppressive effect of hypoxia derived ROS on β-catenin/TCF signal transduction; also recorded: prevents hypoxia-induced inhibition of β-catenin/TCF signaling | Intracellular ROS levels under hypoxia [3]: decrease intracellular ROS; also recorded: significantly prevents ROS production under hypoxia

NC(=O)c1cccnc1 [NAM, nicotinamide]
Hypoxia-induced suppression of TCF signaling (Sirt1 inhibition) ([2]; hepatocytes under hypoxia, addition of Sirt1 inhibitor): abolished this effect

Oc1ccc(C=Cc2cc(O)cc(O)c2)cc1 [resveratrol]
β-catenin/TCF signal transduction (Sirt1 agonist) ([2]; hepatocytes, Sirt1 agonist): significantly inhibited β-catenin/TCF signal transduction

OCc1ccc(-c2nn(Cc3ccccc3)c3ccccc23)o1 [YC-1, 3-(5′-hydroxymethyl-2′-furyl)-1-benzylindazole]
HIF-1 signal activity (HRE reporter) under hypoxia ([1]; hypoxia, pre-treatment with YC-1 (100 μmol/L) for 1 hour): significantly reduced HRE activity; also recorded: inhibits the hypoxia-induced increase in HIF-1 signal activity | Apoptosis under hypoxia (MTT assay, caspase-cleaved K18Asp237) [4]: induced significant apoptosis; also recorded: more apoptosis

Reference: patent US9241972B2, “Use of Wnt agents to prevent hypoxic injury” (THE BOARD OF TRUSTEES OF THE LELAND STANFORD JUNIOR …, priority 2011, dated 2016)
